Experimental data reported in US9227971B2, “Pyrazolo[1,5-a]pyrimidine compounds as mTOR inhibitors” (Merck Sharp & Dohme Corp., priority 2010, dated 2016).
Where two headings read alike, the source gives them in different places.

Experiments:
[1] = tested on: phosphorylated 4E-BP1 Thr37/46 (p4E-BP1 Thr37/46), mTORC1 activity, PC3 cells; test: mTOR target engagement assay, immunofluorescent cell-based, p4E-BP1 Thr37/46 readout (mTORC1 activity); details: read-out: p4E-BP1 Thr37/46 IC50
Method in brief: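 Seed PC3 cells overnight; treat with compound dilutions for ninety minutes at 37° C; fix with glyoxal and block; stain with anti-p4E-BP1 Thr37/46 overnight at 4° C, then fluorescent secondary; read fluorescence and fit IC50 against DMSO-only controls.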

[2] = tested on: phosphorylated AKT Ser473 (pAKT S473), mTORC2 activity, PC3 cells; test: mTOR target engagement assay, immunofluorescent cell-based, pAKT S473 readout (mTORC2 activity)
Method in brief: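 After blocking, cells were stained overnight at 4 °C with anti-pAKT S473 antibody, then a fluorescent secondary; inhibition was read as reduced fluorescence intensity.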

[3] = Homo sapiens, PC-3, PC3 cells, compound treatment ninety minutes at 37° C.
[4] = Homo sapiens, PC-3, Table 3-1, PC3 cells

CC(=O)c1c([C@@H]2C[C@H]3CC[C@@H](C2)N3C(=O)c2nnc[nH]2)nc2c(-c3ccc(-n4cccn4)nc3)cnn2c1N [Compound 1.1.177, 1-(3-(6-(1H-pyrazol-1-yl)pyridin-3-yl)-5-((1R,3s,5S)-8-(4H-1,2,4-triazole-3-carbonyl)-8-azabicyclo[3.2.1]octan-3-yl)-7-aminopyrazolo[1,5-a]pyrimidin-6-yl)ethanone]
IC50 [1, 3]: 1 to 100 nM
IC50 [2, 3]: 1 to 100 nM

COc1ncc(-c2ccc(-c3cnn4c(N)c(S(C)(=O)=O)c([C@@H]5C[C@H]6CC[C@@H](C5)N6C(=O)c5nnc[nH]5)nc34)cn2)cn1 [Compound 3.58, ((1R,3s,5S)-3-(7-amino-3-(6-(2-methoxypyrimidin-5-yl)pyridin-3-yl)-6-(methylsulfonyl)pyrazolo[1,5-a]pyrimidin-5-yl)-8-azabicyclo[3.2.1]octan-8-yl)(4H-1,2,4-triazol-3-yl)methanone]
IC50 ([1]; Table 3-1, PC3 cells): 1000 to 10000 nM
IC50 ([2]; Table 3-1, PC3 cells): 1000 to 10000 nM

CS(=O)(=O)c1c([C@H]2CC3CC[C@H](C2)N3C(=O)c2nnc[nH]2)nc2c(-c3cnc4c(c3)CCCC4O)cnn2c1N (stereo partly drawn) [Compound 7.53, ((1R,3s,5S)-3-(7-amino-3-(8-hydroxy-5,6,7,8-tetrahydroquinolin-3-yl)-6-(methylsulfonyl)pyrazolo [1,5-a]pyrimidin-5-yl)-8-azabicyclo[3.2.1]octan-8-yl)(4H-1,2,4-triazol-3-yl)methanone]
IC50 ([1]; Homo sapiens, PC-3, PC3 cells): 100 to 1000 nM
IC50 ([2]; Homo sapiens, PC-3, PC3 cells): 100 to 1000 nM

CC(=O)c1c([C@@H]2C[C@H]3CC[C@@H](C2)N3C(=O)CO)nc2c(-c3ccc(-c4nccs4)nc3)cnn2c1N [Compound 1.1.33, 1-((1R,3s,5S)-3-(6-acetyl-7-amino-3-(6-(thiazol-2-yl)pyridin-3-yl)pyrazolo[1,5-a]pyrimidin-5-yl)-8-azabicyclo[3.2.1]octan-8-yl)-2-hydroxyethanone]
IC50 [1, 3]: 100 to 1000 nM
IC50 [2, 3]: 1 to 100 nM

CCS(=O)(=O)c1c([C@@H]2C[C@H]3CC[C@@H](C2)N3C(=O)c2nnc[nH]2)nc2c(-c3ccc(-c4ccccc4)nc3)cnn2c1N [Compound 3.161, ((1R,3s,5S)-3-(7-amino-6-(ethylsulfonyl)-3-(6-phenylpyridin-3-yl)pyrazolo[1,5-a]pyrimidin-5-yl)-8-azabicyclo[3.2.1]octan-8-yl)(4H-1,2,4-triazol-3-yl)methanone]
IC50 [1, 4]: 1 to 100 nM
IC50 [2, 4]: 1 to 100 nM

CC(=O)c1c([C@@H]2C[C@H]3CC[C@@H](C2)N3C(=O)c2n[nH]c(N(C)C)n2)nc2c(-c3ccc(-c4ccccc4)nc3)cnn2c1N [Compound 1.1.139, 1-(7-amino-5-((1R,3s,5S)-8-(5-(dimethylamino)-1H-1,2,4-triazole-3-carbonyl)-8-azabicyclo[3.2.1]octan-3-yl)-3-(6-phenylpyridin-3-yl)pyrazolo[1,5-a]pyrimidin-6-yl)ethanone]
IC50 [1, 3]: 1000 to 10000 nM
IC50 [2, 3]: 1000 to 10000 nM

CS(=O)(=O)c1c([C@@H]2C[C@H]3CC[C@@H](C2)N3C(=O)NC2CC2)nc2c(-c3ccc(-c4ccccc4)nc3)cnn2c1N [Compound 3.11, (1R,3s,5S)-3-(7-amino-6-(methylsulfonyl)-3-(6-phenylpyridin-3-yl)pyrazolo[1,5-a]pyrimidin-5-yl)-N-cyclopropyl-8-azabicyclo[3.2.1]octane-8-carboxamide]
IC50 [1, 4]: 1000 to 10000 nM
IC50 [2, 4]: 100 to 1000 nM

Cc1nnc(C(=O)N2[C@@H]3CC[C@H]2C[C@H](c2nc4c(-c5ccc(-c6nc7c(s6)CCC7)nc5)cnn4c(N)c2S(C)(=O)=O)C3)[nH]1 [Compound 3.195, ((1R,3s,5S)-3-(7-amino-3-(6-(5,6-dihydro-4H-cyclopenta[d]thiazol-2-yl)pyridin-3-yl)-6-(methylsulfonyl)pyrazolo[1,5-a]pyrimidin-5-yl)-8-azabicyclo[3.2.1]octan-8-yl)(5-methyl-4H-1,2,4-triazol-3-yl)methanone]
IC50 [1, 4]: 1000 to 10000 nM
IC50 [2, 4]: 1000 to 10000 nM
